Values after ≈ are worked out from the molar mass of the structure shown. Like-named read-outs stand apart in the source and are kept apart here.
What was measured:
Candida albicans 3022 = experiment: Synergistic assay (FIC), CA Flu-R; type: cell-based; conditions: Candida albicans, 3022; CA Flu-R
Procedure: (§1) Synergistic activity was assayed by calculating the fractional inhibitory index (FIC). Briefly, in a 96-well plate, drug A (D13) was serially diluted from 16 to 0.015 μg/ml (11 dilutions), whereas drug B (either fluconazole, amphotericin B, caspofungin, itraconazole, or voriconazole) was serially diluted from 12 to 0.19 μg/ml for fluconazole, 5 to 0.078 μg/ml for amphotericin B, or 8 to 0.007 μg/ml for caspofungin, itraconazole, or voriconazole (seven dilutions). The FIC was defined as (MIC combined/MIC drug A alone) + (MIC combined/MIC drug B alone). Synergism was categorized with the following scale: strongly synergistic effect, FIC of <0.5; synergistic effect, FIC of <1; additive effect, FIC of 1; no effect, FIC between 1 and 2; antagonistic effect, FIC of >2.

Candida albicans A39 = experiment: Synergistic assay (FIC), CA; type: cell-based
Procedure: as §1

Candida krusei ATCC 6258 = experiment: Synergistic assay (FIC), CK Flu R2; type: cell-based; conditions: Pichia kudriavzevii, ATCC6258
Procedure: as §1

Candida krusei = experiment: Synergistic assay (FIC), CK Flu R1; type: cell-based; conditions: Pichia kudriavzevii
Procedure: as §1

C. neoformans [1] = experiment: In vitro susceptibility testing (MIC80); type: cell-based, Cryptococcus neoformans
Procedure: MICs were determined by following the methods of the Clinical and Laboratory Standards Institute (CLSI), with modifications. […] The compounds were serially diluted from 32 to 0.03 μg/ml in a 96-well plate. The inoculum was prepared as described in CLSI protocol M27A3 guidelines ([39]). […] The MICs were determined as the lowest concentration of the compound that inhibited 80% of growth compared to the control.

A549 = experiment: In vitro toxicity (MTT), A549; type: cell-based; conditions: Homo sapiens, cytotoxicity
Procedure: (§2) The murine macrophage cell line J774 and human cancer cell lines A549 and HepG2 were maintained in DMEM containing 10% fetal bovine serum (FBS) and 1% penicillin-streptomycin. At passage 7, 10^5 cells/well in DMEM containing 10% FBS were transferred into 96-well plates and cultured for 14 h for the cells to adhere to the wells. The compounds were added to the cells at concentrations ranging from 0.03 to 128 μg/ml. The wells without the compound served as controls. […] After 24 or 48 h, the supernatant was removed and 50 μl of 5-mg/ml 3-(4,5-dimethylthiazol-2-yl)-2,5-diphenyltetrazoliumbromide (MTT) solution in phosphate-buffered saline (PBS) was added to each well. The plates were incubated for an additional 4 h. The formazan crystal formed inside the cell was dissolved by adding 50 μl of dimethyl sulfoxide (DMSO). The optical density was measured at 570 nm.

C. neoformans [2] = experiment: In vitro killing assay; conditions: for K100*: minimum concentration that kills 100% of C. neoformans cells in 48 h
Procedure: C. neoformans cells from a culture grown overnight were washed in PBS and resuspended in YNB buffered with HEPES at pH 7.4. The cells were counted, and 2 × 10^4 cells were incubated with different concentrations of the drugs in a final volume of 10 ml with a final concentration of 0.5% DMSO. The tubes were then incubated at 37°C with 5% CO2 on a rotary shaker at 200 rpm. Aliquots were taken at the time points indicated and diluted, and 100-µl portions were plated onto YPD plates.

J774 = experiment: In vitro toxicity (MTT), J774; type: cell-based, murine; conditions: Mus musculus, cytotoxicity
Procedure: as §2

HepG2 = experiment: In vitro toxicity (MTT), HepG2; type: cell-based; conditions: Homo sapiens, cytotoxicity
Procedure: as §2

in vitro [3] = conditions: monkey
Description: A commercially available kit was used to examine permeability through the blood-brain barrier (BBB kit MBT-24; Pharmaco Cell Co. Ltd.). This kit allows us to perform a permeability assay using an in vitro reproduction of the blood-brain barrier using monkey brain. Briefly, in a 12-well plate there is a triple culture, with endothelial cells in the luminal part and perycites and astrocytes in the abluminal side connected by tight junctions. The luminal side of the well represents the blood side, whereas the abluminal side represents the brain side. The integrity of the blood-brain barrier is assessed by the measurement of TEER, which indicates the formation of tight junctions. To have an efficient system, the TEER should be >150 Ω cm^2. The kit is kept frozen at −80°C until it is ready to use. […] After that it takes 3 days for the cells to adjust, and then the plate can be used in 4 days for the experiment. For drug testing, after assessing the TEER, the drugs were added in the chosen medium at the desired concentrations and at different time points. At the end of each time point the TEER was measured to assess if the BBB was still intact. After that the medium was collected and subjected to MS to measure the concentration of the samples in the brain side and calculate the permeability value (Papp).

[4] = tested on: Cryptococcus neoformans H99; experiment: Synergistic assay (FIC), CN; type: cell-based
Procedure: as §1

[5] = tested on: Aspergillus fumigatus 293; experiment: Synergistic assay (FIC), AF; type: cell-based
Procedure: as §1

Aspergillus fumigatus = experiment: Mouse model of invasive pulmonary aspergillosis; type: in vivo, mice; conditions: oral 20 mg/kg/day
Procedure: For survival study, 8-week-old CBA/J (Envigo) male mice were used. They were divided into sets of 10 mice for each treatment or control group. The day prior to infection, the mice were immunosuppressed by using triamcinolone acetonide (1 mg/mouse) subcutaneously ([40]). On day 0, mice were infected intranasally with 20 μl of a suspension containing 2 × 10^4 conidia of A. fumigatus strain Af293 and were treated through gavage with 20 mg/kg/day of BHBM, D13, or voriconazole (as a drug control) in a final volume of 100 μl of 30% PEG in saline buffer. The untreated control group mice received 100 μl of 30% PEG in saline buffer. Mice were fed ad libitum and were given 50% grapefruit juice in place of normal drinking water to avoid the liver metabolism of the drugs ([41]). Mice were monitored every day for discomfort and sacrificed subsequently.

Caco-2 permeability = conditions: human
Procedure: (§3) The Caco-2 permeability studies were performed as follows. (i) For the preparation of Caco cells, 50-μl and 25-ml volumes of cell culture medium were added to each well of the Transwell insert and reservoir, respectively. The HTS Transwell plates then were incubated at 37°C, 5% CO2 for 1 h before cell seeding. […] (ii) For the preparation of stock solutions, 10 mM stock solutions of test compounds were prepared in DMSO. The stock solutions of positive controls were prepared in DMSO at a concentration of 10 mM. Digoxin and propranolol were used as control compounds in this assay. (iii) For the assessment of cell monolayer integrity, medium was removed from the reservoir and each Transwell insert and replaced with prewarmed fresh culture medium. Transepithelial electrical resistance (TEER) across the monolayer was measured using a Millicell epithelial volt-Ohm measuring system (Millipore, USA). The plate was returned to the incubator once the measurement was done. The TEER value was calculated according to the following equation: TEER measurement (ohms) × area of membrane (cm^2) = TEER value (ohm · cm^2). The TEER value should be greater than 230 Ω · cm^2, which indicates a well-qualified Caco-2 monolayer. (iv) The assay was performed as follows. The Caco-2 plate was removed from the incubator and washed twice with prewarmed Hanks' balanced salt solution (HBSS; with 10 mM HEPES, pH 7.4) and then incubated at 37°C for 30 min. The stock solutions of control compounds were diluted in DMSO to get 1 mM solutions and then diluted with HBSS (10 mM HEPES, pH 7.4) to get 5 μM working solutions. The stock solutions of the test compounds were diluted in DMSO to get 1 mM solutions and then diluted with HBSS (10 mM HEPES, pH 7.4) to get 5 μM working solutions. The final concentration of DMSO in the incubation system was 0.5%. To determine the rate of drug transport in the apical to basolateral direction, 75 μl of 5 μM working solution of test compound was added to the Transwell insert (apical compartment), and the wells in the receiver plate (basolateral compartment) were filled with 235 μl of HBSS (10 mM HEPES, pH 7.4). To determine the rate of drug transport in the basolateral to apical direction, 235 μl of 5 μM working solution of test compound was added to the receiver plate wells (basolateral compartment), and then the Transwell inserts (apical compartment) were filled with 75 μl of HBSS (10 mM HEPES, pH 7.4). Time zero samples were prepared by transferring 50 μl of 5 μM working solution to wells of the 96-deep-well plate, followed by the addition of 200 μl cold acetonitrile or methanol containing appropriate IS. The plates were incubated at 37°C for 2 h. At the end of the incubation, 50-μl samples from donor sides (apical compartment for AP→BL flux and basolateral compartment for BL→AP) and receiver sides (basolateral compartment for AP→BL flux and apical compartment for BL→AP) were transferred to wells of a new 96-well plate, followed by the addition of 4 volumes of cold acetonitrile or methanol containing appropriate IS. […] An aliquot of 100 μl of the supernatant was mixed with an appropriate volume of ultrapure water before LC-MS/MS analysis. To determine the Lucifer yellow leakage after a 2-h transport period, a stock solution of Lucifer yellow was prepared in ultrapure water and diluted with HBSS (10 mM HEPES, pH 7.4) to reach a final concentration of 100 μM. One hundred microliters of the Lucifer yellow solution was added to each Transwell insert (apical compartment), followed by filling the wells in the receiver plate (basolateral compartment) with 300 μl of HBSS (10 mM HEPES, pH 7.4). The plates were incubated at 37°C for 30 min, and 80-μl samples were removed directly from the apical and basolateral wells (using the basolateral access holes) and transferred to wells of new 96-well plates.

C. neoformans [6] = experiment: Mouse model of cryptococcosis; type: in vivo, mice
C. albicans = experiment: Mouse model of invasive candidiasis; type: in vivo, mice; conditions: oral gavage 20 mg/kg/day
in vitro [7] = conditions: human
Procedure: as §3

[8] = Cryptococcus neoformans, ChemBridge compounds, Supplementary Table 1, read-out: MIC80
[9] = lowest concentration inhibiting 80% of growth

CC[C@H](C)C[C@H](C)CCCCCCCCC(=O)N[C@H]1C[C@@H](O)[C@@H](NCCN)NC(=O)[C@@H]2[C@@H](O)CCN2C(=O)[C@H]([C@H](O)CCN)NC(=O)[C@H]([C@H](O)[C@@H](O)c2ccc(O)cc2)NC(=O)[C@@H]2C[C@@H](O)CN2C(=O)[C@H]([C@@H](C)O)NC1=O [Caspo, capsofungin] gave an MIC (Candida albicans 3022) of 0.06 µg/mL, an MIC (Candida albicans A39) of 0.12 µg/mL and an MIC (Candida krusei ATCC 6258) of 1 µg/mL. It also gave an MIC (Candida krusei) of 1 µg/mL.

Work on O=C(N/N=C/c1cc(Br)ccc1O)c1cc(Br)cc(Br)c1O [D17] yielded an MIC80 (C. neoformans [1]; [8]) of 0.5 µg/mL (≈ 1.01 µM), an MIC80 (C. neoformans [1]; [9]) of 0.5 µg/mL (≈ 1.01 µM) and an IC50 (A549) of 16 µg/mL (≈ 32.5 µM). The “K100*” value (C. neoformans [2]) was 0.5 µg/mL, the “time to kill C. neoformans” value (C. neoformans [2]; time-kill assay) was 6 h and the IC50 (J774) was 16 µg/mL (≈ 32.5 µM). For the same compound, the IC50 (HepG2) was 16 µg/mL (≈ 32.5 µM).

For Cn1c(=O)c2c(ncn2C)n(C)c1=O [Caffeine, reference compound], the Papp at 5 min (in vitro [3]) was 20 ×10⁻⁶ cm/s, the Papp at 15 min (in vitro [3]) was 25 ×10⁻⁶ cm/s and the Papp at 30 min (in vitro [3]) was 25 ×10⁻⁶ cm/s.

In the case of C[C@@H](c1ncncc1F)[C@](O)(Cn1cncn1)c1ccc(F)cc1F [voriconazole, reference compound], the MIC [4] is reported as 4 µg/mL, the MIC [5] is reported as 1 µg/mL and the “lung fungal burden (CFU) of surviving mice” value (Aspergillus fumigatus; at the endpoint, data not shown) is reported as “showed evidence of colonies”. It also gave a mice that survived (Aspergillus fumigatus; immunosuppressed mice, after 15 days) of 40%.

O=C(N/N=C/c1cc(Br)ccc1O)c1cccc(Br)c1 [D2] gave an MIC80 (C. neoformans [1]; [8]) of 0.25 µg/mL (≈ 0.628 µM), an MIC80 (C. neoformans [1]; [9]) of 0.25 µg/mL (≈ 0.628 µM) and an IC50 (A549) of 16 µg/mL (≈ 40.2 µM). The “K100*” value (C. neoformans [2]) was 0.12 µg/mL, the IC50 (J774) was 16 µg/mL (≈ 40.2 µM) and the IC50 (HepG2) was 16 µg/mL (≈ 40.2 µM).

Work on C[C@H]1O[C@@H](O[C@H]2[C@@H](O)C[C@H](O[C@H]3[C@@H](O)C[C@H](O[C@H]4CC[C@@]5(C)[C@H](CC[C@@H]6[C@@H]5C[C@@H](O)[C@]5(C)[C@@H](C7=CC(=O)OC7)CC[C@]65O)C4)O[C@@H]3C)O[C@@H]2C)C[C@H](O)[C@@H]1O [Digoxin, reference compound] yielded a Papp A→B at 2 h, 5 μM (Caco-2 permeability; Caco-2, pH 7.4) of 0.61 ×10⁻⁶ cm/s, a Papp B→A at 2 h, 5 μM (Caco-2 permeability; Caco-2, pH 7.4) of 20.2 ×10⁻⁶ cm/s and an efflux ratio at 2 h, 5 μM (Caco-2 permeability; Caco-2, pH 7.4, Efflux ratio) of 33.2. It also gave a recovery at 2 h, 5 μM (Caco-2 permeability; Caco-2, pH 7.4, Recovery AP→BL) of 82.7% and a recovery at 2 h, 5 μM (Caco-2 permeability; Caco-2, pH 7.4, Recovery BL→AP) of 95.6%.

With OC(Cn1cncn1)(Cn1cncn1)c1ccc(F)cc1F [fluconazole] the MIC (Candida albicans 3022) was > 16 µg/mL, the MIC [4] was 2.5 µg/mL and the MIC (Candida albicans A39) was 2.5 µg/mL. For the same compound, the MIC (Candida krusei ATCC 6258) was > 16 µg/mL, the MIC (Candida krusei) was 16 µg/mL and the mice that survived (C. neoformans [6]; i.p. 1.2 mg/kg/day, treatment immediately after intranasal infection, 40 days) was 60%. For the same compound, the “mice that survived until the end of the experiment” value (C. neoformans [6]; i.p. 1.2 mg/kg/day, treatment started 5 days after infection) was 20%, the “mice that survived until the end of the experiment” value (C. neoformans [6]; oral 20 mg/kg/day starting the day of infection) was 20% and the “CFU in brains and lungs” value (C. neoformans [6]; oral 20 mg/kg/day, 32 days posttreatment, data not shown) was “numerous colonies in the lungs and brain”. The “time within which mice died” value (C. albicans) was ≤ 12 days and the MIC [5] was > 10 µg/mL.

Work on CC(C)NCC(O)COc1cccc2ccccc12 (stereo not shown) [Propranolol] yielded a Papp A→B at 2 h, 5 μM (in vitro [7]; Caco-2, pH 7.4) of 34.4 ×10⁻⁶ cm/s, a Papp B→A at 2 h, 5 μM (in vitro [7]; Caco-2, pH 7.4) of 19.5 ×10⁻⁶ cm/s and an efflux ratio at 2 h, 5 μM (in vitro [7]; Caco-2, pH 7.4) of 0.57. The recovery at 2 h, 5 μM (in vitro [7]; Caco-2, pH 7.4, Recovery AP→BL) was 90.7% and the recovery at 2 h, 5 μM (in vitro [7]; Caco-2, pH 7.4, Recovery BL→AP) was 95.5%.

With C[C@@H]1[C@H](O)[C@@H](C)/C=C/C=C/C=C/C=C/C=C/C=C/C=C/[C@H](O[C@@H]2O[C@H](C)[C@@H](O)[C@H](N)[C@@H]2O)C[C@@H]2O[C@](O)(C[C@@H](O)C[C@@H](O)[C@H](O)CC[C@@H](O)C[C@@H](O)CC(=O)O[C@H]1C)C[C@H](O)[C@H]2C(=O)O [AB, amphotericin B] the MIC [4] was 0.25 µg/mL.

Compound CCC(C)n1ncn(-c2ccc(N3CCN(c4ccc(OCC5COC(Cn6cncn6)(c6ccc(Cl)cc6Cl)O5)cc4)CC3)cc2)c1=O (stereo not shown) [Itra, itraconazole] has an MIC (Candida albicans 3022) of 2 µg/mL, an MIC [4] of 0.06 µg/mL and an MIC (Candida albicans A39) of 0.06 µg/mL. The MIC (Candida krusei ATCC 6258) was 1 µg/mL, the MIC (Candida krusei) was 1 µg/mL and the MIC [5] was 0.25 µg/mL.

Source: publication PMC5923120, “Acylhydrazones as Antifungal Agents Targeting the Synthesis of Fungal Sphingolipids” (Antimicrobial Agents and Chemotherapy, 2018)
